The source of these data is PMC10135263 (Antibiotics, 2023).

Molecules are shown by their SMILES.

The nature of data set [1]: Difference of pharmacokinetic parameters between intravenous microdialysis and standard plasma sampling. The settings on record: intravenous microdialysis minus standard plasma, mean (95% confidence interval). On the procedure:
(§1) For the data analysis, the microdialysate concentrations were attributed to the midpoint of the sampling interval. The pharmacokinetic parameters and statistical analysis were performed using STATA (v. 17.0 StataCorp, College Station, TX, USA) for continuous intravenous microdialysis samples and standard plasma samples separately. […] AUC was calculated using the linear-up/log-down method. Cmax was calculated as the maximum of all the concentrations and Tmax as the time to reach Cmax. For comparison between the two sampling methods, the difference of pharmakokinetic parameters between methods is calculated including 95% confidence intervals. The Kenward–Roger approximation method was used due to small sample size, as a correction for degrees of freedom. Model assumptions were tested by visual diagnosis of residuals, fitted values, and estimates of random effects.

The nature of data set [2]: Pharmacokinetics from standard plasma sampling (central venous catheter), free unbound concentrations. The settings on record: vancomycin 1 g iv infused over 100 min, co-administered with meropenem, eight female pigs, standard plasma samples, mean (95% confidence interval).
Excerpt: (§2) Eight female pigs, Danish Landrace Breed, weight 78–82 kg, were included. […] Intravenous microdialysis catheters were inserted into the left subclavian vein, guided by ultrasound and using a peripheral venous introducer. On the opposite side of the throat, a central venous catheter was placed for standard plasma sampling (Figure 3). At the end of the sampling period, all pigs were euthanized by intravenous injection of pentobarbital.
After placement, the intravenous microdialysis catheters were perfused with 0.9% NaCl followed by a 20 min tissue equilibrium period. […] Dialysates were collected during an 8 h sampling period every 30 min from time 0 to 240 min and every 60 min from time 240 to 480 min, resulting in 12 dialysates per pig. Plasma samples, each containing approximately 4 mL, were collected from the central venous catheter in the middle of every dialysate sampling interval to EDTA tubes. […] After a 30 min equilibrium period, one calibration sample was collected over a 40 min interval. Collected plasma samples were stored at 5 °C for a maximum of 6 h before being centrifuged at 3000× g for 10 min. Dialysates and plasma samples were frozen at −80 °C until analysis.
The principle of this analysis is that (in competition) the free drug competes with a drug–enzyme conjugate for the antibody (File S1). […] Meropenem was quantified using ultra-high-performance liquid chromatography (UHPLC). Quantification was performed after ultrafiltration of the plasma samples using a centrifree ultrafiltration device with a nominal molecular weight limit of 30 kDa (Millipore). Some 5 µL of the filtrate was prepared for analysis.
as §1

A short description of data set [3]: Pharmacokinetics from continuous intravenous microdialysis sampling (subclavian vein), free unbound concentrations. The settings on record: vancomycin 1 g iv infused over 100 min, co-administered with meropenem, eight female pigs, mean (95% confidence interval). Here is the method:
In the microdialysis system, complete equilibrium will not occur across the semipermeable membrane, due to the constant flow. As such, the obtained concentration in the dialysates represents a fraction of the actual concentration. This fraction is referred to as the relative recovery, and it is essential to calculate to determine the absolute concentration of an analyte. In this study, calibration using retrodialysis by drug was used. Relative recovery was calculated by the following equation:(1) Relative recovery %=100 ·1−Cdialysate/Cperfusate
(2) Cplasma=100 ·Cdialysate/Relative recovery %
All the microdialysis equipment was acquired from M Dialysis AB (Stockholm, Sweden), and consisted of 67 Intravenous Microdialysis Catheters with a membrane length of 30 mm, a 20 kD cut-off, and 107 Microdialysis pumps set at a flow rate of 1 μL/min.
as §2
After placement, the intravenous microdialysis catheters were perfused with 0.9% NaCl followed by a 20 min tissue equilibrium period. […]
A 3 µL sample volume was introduced into the UHPLC system with a C18 column and further analyzed with mass spectrometry. […]
For the data analysis, the microdialysate concentrations were attributed to the midpoint of the sampling interval. […] AUC was calculated using the linear-up/log-down method. Cmax was calculated as the maximum of all the concentrations and Tmax as the time to reach Cmax. For comparison between the two sampling methods, the difference of pharmakokinetic parameters between methods is calculated including 95% confidence intervals. […]

As to `CN[C@H](CC(C)C)C(=O)N[C@H]1C(=O)N[C@@H](CC(N)=O)C(=O)N[C@H]2C(=O)N[C@H]3C(=O)N[C@H](C(=O)N[C@H](C(=O)O)c4cc(O)cc(O)c4-c4cc3ccc4O)[C@H](O)c3ccc(c(Cl)c3)Oc3cc2cc(c3O[C@@H]2O[C@H](CO)[C@@H](O)[C@H](O)[C@H]2O[C@H]2C[C@](C)(N)[C@H](O)[C@H](C)O2)Oc2ccc(cc2Cl)[C@H]1O` [Vancomycin, vancomycin], the “T1/2, difference between methods” value in data set [1] (vancomycin) is reported as 45 (−55; 146) min. Further, the “Tmax, difference between methods” value in data set [1] (vancomycin) is 25 (4.3; 46) min. The Cmax in data set [2] (homogeneous enzyme immunoassay) is given as 36 (24; 49) µg/mL; in data set [3] (intravenous microdialysis, 1 μL/min, UHPLC-MS/MS, recovery-corrected), 14 (2; 26) µg/mL. Besides, the “AUC0–8h” value in data set [2] (homogeneous enzyme immunoassay, non-compartmental) is given as 7014 (5779; 8249) min µg/mL. For the same molecule, the figures for the T1/2 in data set [2] and in data set [3] (intravenous microdialysis samples) were 197 (124; 270) min and 242 (162; 322) min, respectively. The Tmax was 85 (72; 98) min in data set [2] and 110 (97; 123) min in data set [3] (intravenous microdialysis samples, concentrations attributed to midpoint of sampling interval).

Turning to `C[C@@H](O)[C@H]1C(=O)N2C(C(=O)O)=C(S[C@@H]3CN[C@H](C(=O)N(C)C)C3)[C@H](C)[C@H]12` [Meropenem, meropenem], in data set [1] (meropenem), the “Tmax, difference between methods” value is on record as 5 (−8; 18) min.
